Experiment [1] has as its target T1, mushroom tyrosinase (Agaricus bisporus, UniProt C7FF04). In words: Tyrosinase inhibition assay (L-DOPA oxidation, absorbance at 492 nm).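 Note: enzyme in phosphate buffer, compounds preincubated with enzyme, inhibition computed against blank absorbance, IC50 fitted by nonlinear regression, runs in triplicate.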 The class given is biochemical.
Protocol: The inhibitory effect on mushroom tyrosinase (TYase) was evaluated using a method reported in the literature with some modifications[21]. This assay was performed in PBS (100 mM, pH = 6.8 in 25 °C). Test samples 1–44 (80 µL) were preincubated with TYase solution (40 µL; 250 U/mL) at 25 °C for 10 min. Then, L-DOPA (80 µL; 0.19 mg/mL) was added, and after an additional 10 min at 25 °C, the absorbance was measured at 492 nm. […] The inhibitory effect was calculated as follows: TYaseInh (%) = [(B−C)/C] x 100 where B and C are the absorbances of the blank and the compounds, respectively. […] All tests were performed in triplicate.
Statistical analysis for IC50 calculations was performed using nonlinear regression using GraphPad Prism 9 (Trail, GraphPad Software, La Jolla, CA, USA). Data were collected as mean ± SD (n = 3), and the significance of differences was analysed using one-way analysis of variance (ANOVA).
Experiment [2] has as its target T1, mushroom tyrosinase. In words: Tyrosinase inhibition kinetic analysis (Lineweaver-Burk and Dixon plots). It counts as biochemical. The conditions noted are these: for Type of inhibition: Lineweaver-Burk plots.
Protocol: The enzyme reaction kinetics of these compounds were measured by constructing Lineweaver-Burk plots of inverse velocities (1/V), contrary to the inverse of substrate concentration (1/S)[22]^,[23]. Preincubations and measurement times were performed using the same protocol as described above. The enzyme concentration (250 U/mL) was kept constant in the presence of substrate solutions (L-DOPA) between 0.25 and 2 mM in all kinetic studies. The inhibitor concentrations for all test compounds were 0, 25, and 50 µM. The inhibitory types and inhibitory constant (Ki) values were described by 1/V versus inhibitor concentration plots (Dixon plot).
[3] abbreviates: Dixon plot, L-DOPA 0.25-2 mM, inhibitor 0, 25, 50 µM, ± SD, triplicate, read-out: Ki.
[4] abbreviates: L-DOPA 0.25-2 mM, inhibitor 0, 25, 50 µM.
Setting [5] is: substrate L-DOPA, PBS pH 6.8, 25 °C, highest tested concentration 500 µM, mean ± SD, n = 3, read-out: IC50.

The term IC50 denotes the concentration that inhibits the measured activity by half. The term Ki denotes a measure of affinity in units of concentration, obtained from inhibition or displacement.

Where two headings read alike, the source gives them in different places.

T1 sequence (C7FF04 1-392): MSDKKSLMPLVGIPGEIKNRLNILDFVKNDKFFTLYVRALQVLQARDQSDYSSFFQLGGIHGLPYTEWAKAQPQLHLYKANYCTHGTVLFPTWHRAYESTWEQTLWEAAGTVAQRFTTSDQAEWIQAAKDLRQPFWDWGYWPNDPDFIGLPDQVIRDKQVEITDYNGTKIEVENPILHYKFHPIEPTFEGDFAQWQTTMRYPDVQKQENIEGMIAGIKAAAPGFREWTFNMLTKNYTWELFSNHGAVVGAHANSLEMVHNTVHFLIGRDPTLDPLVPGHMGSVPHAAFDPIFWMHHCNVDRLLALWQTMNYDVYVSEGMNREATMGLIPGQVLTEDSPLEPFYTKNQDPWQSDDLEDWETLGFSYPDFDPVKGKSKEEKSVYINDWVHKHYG

In the case of `COc1ccc(C2CC(=O)c3c(O)cc(OC)cc3O2)cc1` (stereo not drawn) [Compound 2, 7,4′-dimethoxynaringenin], the IC50 on mushroom tyrosinase [1] is above 500 µM.

As for `O=C1CC(c2ccc(O)c(O)c2)Oc2c1ccc(O)c2O` (stereo not drawn) [Compound 4, isookanin], on mushroom tyrosinase [2] (setting [3]), the Ki is 18.6 ± 0.53 µM. Further, on mushroom tyrosinase [2] (setting [4]), the Type of inhibition entry is “non-competitive”. Also, the IC50 on mushroom tyrosinase [1] (setting [5]) came to 58.43 ± 0.38 µM.

Take `COc1ccc([C@@H]2CC(=O)c3c(O)cc(O)cc3O2)cc1O` [Compound 5, hesperetin]: the IC50 against mushroom tyrosinase [1] amounted to 237 ± 2.63 µM.

In turn, `COc1ccc(C2CC(=O)c3c(O)cc(OC4OC(COC5OC(C)C(O)C(O)C5O)C(O)C(O)C4O)cc3O2)cc1O` (stereo not drawn) [Compound 6, hesperetin 7-O-rutinoside] came in with an IC50 against mushroom tyrosinase [1] of 131 ± 1.4 µM.

Take `O=c1cc(-c2ccccc2)oc2cccc(O)c12` [Compound 7, 5-hydroxyflavone]: the IC50 on mushroom tyrosinase [1] amounted to 120 ± 1.48 µM.

As to `COc1ccccc1-c1cc(=O)c2c(O)cccc2o1` [Compound 8, 5-hydroxy-2′-methoxyflavone], the IC50 against mushroom tyrosinase [1] is 122.1 ± 1.19 µM.

In the case of `COc1cccc(OC)c1-c1cc(=O)c2c(O)cccc2o1` [Compound 9, 5-hydroxy-2′,6′-dimethoxyflavone], the IC50 against mushroom tyrosinase [1] worked out at 127 ± 1.4 µM.

As for `O=c1cc(-c2ccccc2)oc2cc(O)cc(O)c12` [Compound 11, chrysin], at mushroom tyrosinase [1], the IC50 was 129.4 ± 1.13 µM.

Compound `O=c1cc(-c2ccc(O)cc2)oc2cc(O)cc(O)c12` [Compound 12, apigenin] showed an IC50 at mushroom tyrosinase [1] of 160.5 ± 1.44 µM.

Turning to `O=c1cc(-c2ccc(O)cc2)oc2cc(OC3OC(CO)C(O)C(O)C3O)cc(O)c12` (stereo not drawn) [Compound 13, apigenin 7-O-glucoside], the IC50 on mushroom tyrosinase [1] is 323.2 ± 1.48 µM.

In turn, `O=c1cc(-c2ccc(O)cc2)oc2c([C@@H]3O[C@H](CO)[C@@H](O)[C@H](O)[C@H]3O)c(O)cc(O)c12` [Compound 14, apigenin 8-C-glucoside] gave an IC50 at mushroom tyrosinase [1] of 133 ± 1.83 µM.

In the case of `COc1ccc(-c2cc(=O)c3c(O)cc(O)cc3o2)cc1` [Compound 16, acacetin], at mushroom tyrosinase [1], the IC50 is 207.9 ± 1.35 µM.

Turning to `O=c1cc(-c2ccc(O)c(O)c2)oc2cc(O)cc(O)c12` [Compound 17, luteolin], at mushroom tyrosinase [2] (setting [3]), the Ki is 11.3 ± 0.77 µM. Also, on mushroom tyrosinase [2] (setting [4]), the Type of inhibition result was “non-competitive”. Further, on mushroom tyrosinase [1] (setting [5]), the IC50 worked out at 58.9 ± 0.78 µM.

With `O=c1cc(-c2ccc(O)c(O)c2)oc2cc(OC3OC(CO)C(O)C(O)C3O)cc(O)c12` (stereo not drawn) [Compound 18, luteolin 7-O-glucoside], on mushroom tyrosinase [1], the IC50 was determined as 415 ± 2.38 µM.

`O=c1cc(-c2ccc(O)c(O)c2)oc2cc(O)c([C@@H]3O[C@H](CO)[C@@H](O)[C@H](O)[C@H]3O)c(O)c12` [Compound 20, luteolin-6-C-glucoside] registered an IC50 on mushroom tyrosinase [1] of 133 ± 2.32 µM.

Take `COc1ccc(-c2cc(=O)c3c(O)cc(O)c(C4OC[C@@H](O)[C@H](O)[C@H]4OC4O[C@H](CO)[C@@H](O)[C@H](O)[C@H]4O)c3o2)cc1O` (stereo partly drawn) [Compound 22, 5,7,3′-trihydroxy-4′-methoxyflavone-8-C-xylopyranoside-2"-O-glucoside]: on mushroom tyrosinase [1] (setting [5]), the IC50 is above 500 µM.

With `CC(=O)Oc1ccc(-c2cc(=O)c3c(O)cc(O)c(C4OC[C@@H](O)[C@H](O)[C@H]4OC4O[C@H](CO)[C@@H](O)[C@H](O)[C@H]4O)c3o2)cc1O` (stereo partly drawn) [Compound 23, 5,7,3′-trihydroxy-4′-acetoxyflavone-8-C-xylopyranoside-2"-O-glucoside], the IC50 at mushroom tyrosinase [1] (setting [5]) was above 500 µM.

For `COc1cc(-c2cc(=O)c3c(O)cc(O)c(C4OC[C@@H](O)[C@H](O)[C@H]4OC4O[C@H](CO)[C@@H](OC(C)=O)[C@H](O)[C@H]4O)c3o2)ccc1OC(C)=O` (stereo partly drawn) [Compound 25, 5,7-dihydroxy-3′-methoxy-4′-acetoxyflavone-8-C-xylopyranoside-2"-O-(4′"-acetoxy)-glucoside], the IC50 on mushroom tyrosinase [1] (setting [5]) is above 500 µM.

As for `O=c1c(O)c(-c2ccc(O)cc2)oc2cc(O)cc(O)c12` [Compound 26, kaempferol], at mushroom tyrosinase [2] (setting [3]), the Ki was 40.2 ± 0.46 µM. At mushroom tyrosinase [2] (setting [4]), the Type of inhibition entry is recorded as “competitive”. On mushroom tyrosinase [1] (setting [5]), the IC50 was determined as 65.1 ± 1.09 µM.

Consider `COc1c(O)cc(O)c2c(=O)c(O)c(-c3ccc(O)cc3)oc12` [Compound 27, 8-methoxykaempferol], for which the IC50 on mushroom tyrosinase [1] (setting [5]) is 290.5 ± 1.19 µM.

Take `COc1cc(O)c2c(=O)c(OC)c(-c3ccc(O)cc3)oc2c1` [Compound 28, kumatakenin]: the 50% inhibitory concentration (IC50) on mushroom tyrosinase [1] (setting [5]) was above 500 µM.

For `O=c1c(O[C@@H]2O[C@H](CO)[C@@H](O)[C@H](O)[C@H]2O)c(-c2ccc(O)cc2)oc2cc(O)cc(O)c12` [Compound 29, kaempferol 3-O-glucoside], 481.5 ± 1.73 µM corresponded to half-maximal inhibition against mushroom tyrosinase [1] (IC50).

For the compound `O=C(O)C1OC(Oc2c(-c3ccc(O)cc3)oc3cc(O)cc(O)c3c2=O)C(O)C(O)C1O` (stereo not drawn) [Compound 30, kaempferol 3-O-glucuronide], on mushroom tyrosinase [1] (setting [5]), the IC50 worked out at 270 ± 1.23 µM.

On mushroom tyrosinase [1], `O=c1c(OC2OC(CO)C(O)C(O)C2O)c(-c2ccc(O)cc2)oc2cc(O)cc(O)c12` (stereo not drawn) [Compound 31, kaempferol 3-O-galactoside] displayed an IC50 of 186.9 ± 1.09 µM.

Consider `O=C(/C=C/c1ccc(O)cc1)OC[C@H]1O[C@@H](Oc2c(-c3ccc(O)cc3)oc3cc(O)cc(O)c3c2=O)[C@H](O)[C@@H](O)[C@@H]1O` [Compound 32, kaempferol 3-O-(6″-O-trans-p-coumaroyl)-glucoside], for which the Ki on mushroom tyrosinase [2] was 9.83 ± 0.57 µM. For the same compound, at mushroom tyrosinase [2] (setting [4]), the Type of inhibition result is recorded as “competitive”. Moreover, at mushroom tyrosinase [1], half-maximal inhibition (IC50) required 78.5 ± 0.84 µM.

Consider `COc1ccc(-c2oc3cc(O)cc(O)c3c(=O)c2OC)cc1` [Compound 33, ermanin], for which the IC50 at mushroom tyrosinase [1] (setting [5]) is 231.7 ± 1.17 µM.

Regarding `COc1ccc(-c2oc3c(CC=C(C)C)c(O[C@@H]4O[C@H](CO)[C@@H](O)[C@H](O)[C@H]4O)cc(O)c3c(=O)c2O[C@@H]2O[C@@H](C)[C@H](O)[C@@H](O)[C@H]2O)cc1` [Compound 34, icariin], the IC50 at mushroom tyrosinase [1] (setting [5]) was found to be 150 ± 1.84 µM.

On to `O=c1c(O)c(-c2ccc(O)c(O)c2)oc2cc(O)cc(O)c12` [Compound 35, quercetin], for which the Type of inhibition entry at mushroom tyrosinase [2] (setting [4]) is “competitive”.

On to `O=C(O)C1OC(Oc2c(-c3ccc(O)c(O)c3)oc3cc(O)cc(O)c3c2=O)C(O)C(O)C1O` (stereo not drawn) [Compound 36, quercetin 3-O-glucuronide], for which the IC50 against mushroom tyrosinase [1] stood at 220.1 ± 1.14 µM.

Regarding `C[C@@H]1O[C@@H](OC[C@H]2O[C@@H](Oc3c(-c4ccc(O)c(O)c4)oc4cc(O)cc(O)c4c3=O)[C@H](O)[C@@H](O)[C@@H]2O)[C@H](O)[C@H](O)[C@H]1O` [Compound 37, quercetin 3-O-rutinoside], on mushroom tyrosinase [1], it took 141.7 ± 1.3 µM to reach half-maximal inhibition (IC50).

With `CC1OC(OCC2OC(Oc3c(-c4ccc(O)c(O)c4)oc4cc(OC5OC(CO)C(O)C(O)C5O)cc(O)c4c3=O)C(O)C(O)C2O)C(O)C(O)C1O` (stereo not drawn) [Compound 38, quercetin 3-O-rutinoside-7-O-glucoside], on mushroom tyrosinase [1] (setting [5]), the IC50 is 148 ± 1.57 µM.

`O=c1c(O)c(-c2cc(O)c(O)c(O)c2)oc2cc(O)ccc12` [Compound 41, robinetin] came in with a Ki at mushroom tyrosinase [2] of 27.4 ± 0.62 µM. Moreover, at mushroom tyrosinase [2] (setting [4]), the Type of inhibition entry is reported as “non-competitive”. On mushroom tyrosinase [1], this compound yielded an IC50 of 63.1 ± 0.85 µM.

At mushroom tyrosinase [1], `O=c1c(O)c(-c2cc(O)c(O)c(O)c2)oc2cc(O)cc(O)c12` [Compound 42, myricetin] registered an IC50 of 100 ± 1.86 µM.

For the compound `O=c1c(-c2ccc(O)cc2)coc2cc(O)ccc12` [Compound 43, daidzein], the IC50 against mushroom tyrosinase [1] is above 500 µM.

As for `O=c1c(-c2ccc(O)cc2)coc2cc(O)cc(O)c12` [Compound 44, genistein], at mushroom tyrosinase [1], the IC50 was above 500 µM.

The values are drawn from publication PMC8735877, “Flavonoids as tyrosinase inhibitors in in silico and in vitro models: basic framework of SAR using a statistical modelling approach” (Journal of Enzyme Inhibition and Medicinal Chemistry, 2021).
